In ChEMBL document CHEMBL1201862, “PubChem BioAssay data set” (2004):
Blank lines part the entries; values can stand above or below the compound they belong to. The source made the active and inactive calls.

Tests used:
HEK293 = assay: inhibition of NOD1-driven NF-kB reporter – cell-based, luminescence, uHTS, primary screen (AID 1578); assay type: functional; details: Homo sapiens
[1] = molecular target: Peroxisome proliferator-activated receptor gamma/Nuclear receptor corepressor 2 (Homo sapiens, UniProt P37231+Q9Y618); assay type: functional
[2] = molecular target: Dual specificity tyrosine-phosphorylation-regulated kinase 3 (Homo sapiens, UniProt O43781); assay type: functional;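 also: measured as one member of a broad kinase panel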
Dual specificity tyrosine-phosphorylation-regulated kinase 3, sequence (O43781 whole entry): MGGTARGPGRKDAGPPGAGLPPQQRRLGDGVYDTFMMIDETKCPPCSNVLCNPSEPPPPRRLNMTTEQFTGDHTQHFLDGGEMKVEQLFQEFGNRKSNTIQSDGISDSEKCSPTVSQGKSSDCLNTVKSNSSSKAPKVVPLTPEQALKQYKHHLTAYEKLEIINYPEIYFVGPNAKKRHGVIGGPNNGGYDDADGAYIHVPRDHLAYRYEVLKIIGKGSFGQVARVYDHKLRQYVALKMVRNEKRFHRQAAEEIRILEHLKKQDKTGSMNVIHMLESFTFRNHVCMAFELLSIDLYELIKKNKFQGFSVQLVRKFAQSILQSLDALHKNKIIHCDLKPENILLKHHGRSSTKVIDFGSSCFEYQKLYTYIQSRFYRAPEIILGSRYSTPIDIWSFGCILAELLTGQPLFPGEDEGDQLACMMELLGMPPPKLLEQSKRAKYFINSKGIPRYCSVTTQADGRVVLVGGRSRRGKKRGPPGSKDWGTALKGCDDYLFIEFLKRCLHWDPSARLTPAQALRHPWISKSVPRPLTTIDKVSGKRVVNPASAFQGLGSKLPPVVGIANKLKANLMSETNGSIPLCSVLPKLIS

[3] = molecular target: Serine/threonine-protein kinase pim-2 (Homo sapiens, UniProt Q9P1W9); assay type: functional;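 also: value comes from a broad kinase panel profiling study in which PIM2 was one of the panel members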
Serine/threonine-protein kinase pim-2, sequence (Q9P1W9 whole entry): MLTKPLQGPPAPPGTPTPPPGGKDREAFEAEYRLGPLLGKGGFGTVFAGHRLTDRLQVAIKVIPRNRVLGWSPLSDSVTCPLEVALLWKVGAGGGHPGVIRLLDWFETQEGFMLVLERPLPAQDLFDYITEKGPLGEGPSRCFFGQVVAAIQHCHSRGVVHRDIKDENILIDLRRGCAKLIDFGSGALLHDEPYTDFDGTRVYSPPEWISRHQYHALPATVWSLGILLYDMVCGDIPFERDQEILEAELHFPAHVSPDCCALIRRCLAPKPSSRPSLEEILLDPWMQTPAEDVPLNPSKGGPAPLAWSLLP

[4] = molecular target: Glycogen synthase kinase-3 alpha (Homo sapiens, UniProt P49840); assay type: functional;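 also: GSK3A result taken from a broad kinome-wide kinase panel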
Glycogen synthase kinase-3 alpha, sequence (P49840 whole entry): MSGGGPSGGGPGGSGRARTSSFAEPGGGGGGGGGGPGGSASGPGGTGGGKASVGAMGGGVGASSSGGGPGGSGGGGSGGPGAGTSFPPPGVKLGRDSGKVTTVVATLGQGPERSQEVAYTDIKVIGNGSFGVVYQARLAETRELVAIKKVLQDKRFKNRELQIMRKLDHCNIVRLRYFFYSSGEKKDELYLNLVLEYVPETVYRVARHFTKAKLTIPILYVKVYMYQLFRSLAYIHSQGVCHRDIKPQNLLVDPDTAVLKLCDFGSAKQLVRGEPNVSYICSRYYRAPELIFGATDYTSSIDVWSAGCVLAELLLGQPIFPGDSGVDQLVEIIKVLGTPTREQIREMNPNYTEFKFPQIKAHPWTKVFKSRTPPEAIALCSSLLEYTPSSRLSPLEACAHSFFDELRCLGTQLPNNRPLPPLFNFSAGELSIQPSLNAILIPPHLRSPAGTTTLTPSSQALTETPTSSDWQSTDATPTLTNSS

[5] = molecular target: Casein kinase II subunit alpha (Homo sapiens, UniProt P68400); assay type: functional
Casein kinase II subunit alpha, sequence (P68400 whole entry): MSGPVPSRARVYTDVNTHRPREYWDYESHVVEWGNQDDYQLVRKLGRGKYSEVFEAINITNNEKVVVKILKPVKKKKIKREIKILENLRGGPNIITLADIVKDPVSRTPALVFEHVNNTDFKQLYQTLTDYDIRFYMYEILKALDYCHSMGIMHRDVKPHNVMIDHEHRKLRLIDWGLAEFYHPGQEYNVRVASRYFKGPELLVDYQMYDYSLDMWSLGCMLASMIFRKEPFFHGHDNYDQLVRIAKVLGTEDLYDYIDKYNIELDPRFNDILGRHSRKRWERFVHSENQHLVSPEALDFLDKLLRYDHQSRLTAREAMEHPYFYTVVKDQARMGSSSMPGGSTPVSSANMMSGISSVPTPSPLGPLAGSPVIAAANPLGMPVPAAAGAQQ

[6] = molecular target: Mitogen-activated protein kinase kinase kinase kinase 2 (Homo sapiens, UniProt Q12851); assay type: functional;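 also: measured as one member of a kinome-wide kinase panel, with MAP4K2 as the panel entry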
Mitogen-activated protein kinase kinase kinase kinase 2, sequence (Q12851 whole entry): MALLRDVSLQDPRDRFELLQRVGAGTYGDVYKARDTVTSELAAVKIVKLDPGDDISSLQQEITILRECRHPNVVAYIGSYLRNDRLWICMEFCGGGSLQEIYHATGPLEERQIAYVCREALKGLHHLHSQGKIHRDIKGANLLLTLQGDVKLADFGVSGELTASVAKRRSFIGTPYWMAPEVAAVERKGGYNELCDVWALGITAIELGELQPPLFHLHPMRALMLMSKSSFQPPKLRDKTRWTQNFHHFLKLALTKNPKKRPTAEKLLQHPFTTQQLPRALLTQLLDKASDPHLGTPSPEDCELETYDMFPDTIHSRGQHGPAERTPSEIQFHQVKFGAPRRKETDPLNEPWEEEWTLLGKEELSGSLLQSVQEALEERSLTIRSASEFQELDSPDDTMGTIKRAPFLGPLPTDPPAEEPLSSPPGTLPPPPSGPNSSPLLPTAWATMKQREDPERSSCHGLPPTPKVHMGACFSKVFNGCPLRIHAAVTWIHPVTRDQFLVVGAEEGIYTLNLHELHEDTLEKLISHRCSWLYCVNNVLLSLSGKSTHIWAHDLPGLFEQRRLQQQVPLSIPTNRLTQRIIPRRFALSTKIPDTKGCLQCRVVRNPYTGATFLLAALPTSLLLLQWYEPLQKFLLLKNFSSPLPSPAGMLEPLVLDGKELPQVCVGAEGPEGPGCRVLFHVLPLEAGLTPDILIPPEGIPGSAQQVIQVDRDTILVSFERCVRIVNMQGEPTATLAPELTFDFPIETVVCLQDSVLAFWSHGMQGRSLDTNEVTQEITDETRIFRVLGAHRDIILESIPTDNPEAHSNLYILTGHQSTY

[7] = molecular target: Receptor-type tyrosine-protein kinase FLT3 (Homo sapiens, UniProt P36888); assay type: functional;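 also: FLT3 was tested as one member of a kinome-wide kinase panel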
Receptor-type tyrosine-protein kinase FLT3, sequence (P36888 whole entry): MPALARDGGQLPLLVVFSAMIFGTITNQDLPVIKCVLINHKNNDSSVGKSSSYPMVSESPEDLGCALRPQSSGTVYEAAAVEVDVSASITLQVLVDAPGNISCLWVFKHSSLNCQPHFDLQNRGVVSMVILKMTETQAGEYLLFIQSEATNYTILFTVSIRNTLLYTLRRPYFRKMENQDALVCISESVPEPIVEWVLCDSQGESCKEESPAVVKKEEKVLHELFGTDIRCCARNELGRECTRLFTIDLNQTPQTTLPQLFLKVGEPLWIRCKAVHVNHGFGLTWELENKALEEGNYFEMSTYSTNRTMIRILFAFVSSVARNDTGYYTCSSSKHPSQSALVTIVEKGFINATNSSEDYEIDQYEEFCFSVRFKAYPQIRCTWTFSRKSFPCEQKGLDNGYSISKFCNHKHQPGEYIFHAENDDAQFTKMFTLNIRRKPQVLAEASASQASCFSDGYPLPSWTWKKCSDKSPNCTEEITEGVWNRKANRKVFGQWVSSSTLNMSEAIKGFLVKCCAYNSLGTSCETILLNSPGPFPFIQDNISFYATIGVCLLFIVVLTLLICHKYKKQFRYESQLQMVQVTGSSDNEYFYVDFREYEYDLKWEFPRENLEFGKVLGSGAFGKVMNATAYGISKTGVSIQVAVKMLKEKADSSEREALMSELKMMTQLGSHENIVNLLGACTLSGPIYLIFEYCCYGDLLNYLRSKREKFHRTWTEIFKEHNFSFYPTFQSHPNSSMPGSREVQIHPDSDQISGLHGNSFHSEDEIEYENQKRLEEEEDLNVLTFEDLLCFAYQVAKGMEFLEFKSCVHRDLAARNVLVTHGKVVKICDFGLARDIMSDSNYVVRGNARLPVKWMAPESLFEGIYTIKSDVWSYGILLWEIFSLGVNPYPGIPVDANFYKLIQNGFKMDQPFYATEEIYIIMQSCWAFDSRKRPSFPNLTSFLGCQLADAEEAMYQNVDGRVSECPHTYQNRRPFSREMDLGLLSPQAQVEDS

[8] = molecular target: Calcium/calmodulin-dependent protein kinase type II subunit alpha (Homo sapiens, UniProt Q9UQM7); assay: Navigating the Kinome. Panel member name: CAMK2A; assay type: functional
Calcium/calmodulin-dependent protein kinase type II subunit alpha, sequence (Q9UQM7 whole entry): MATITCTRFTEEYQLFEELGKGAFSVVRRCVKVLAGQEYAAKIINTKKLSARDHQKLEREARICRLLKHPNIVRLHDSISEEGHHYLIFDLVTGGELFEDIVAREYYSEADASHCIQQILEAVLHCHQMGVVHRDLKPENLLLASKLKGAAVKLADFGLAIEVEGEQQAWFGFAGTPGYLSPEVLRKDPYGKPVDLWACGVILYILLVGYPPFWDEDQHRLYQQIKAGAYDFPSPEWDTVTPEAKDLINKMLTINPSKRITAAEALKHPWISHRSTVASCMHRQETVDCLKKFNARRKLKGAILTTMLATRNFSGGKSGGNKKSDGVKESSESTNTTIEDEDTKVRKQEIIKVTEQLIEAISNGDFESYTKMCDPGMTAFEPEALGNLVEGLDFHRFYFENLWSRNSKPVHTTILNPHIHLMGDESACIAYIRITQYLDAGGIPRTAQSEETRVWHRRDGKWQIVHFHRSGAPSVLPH

Streptococcus = assay: GAS UMAA2166 growth inhibition – luminescence, BacTiterGlo, counter-screen for streptokinase expression inhibitor project, dose response (AID 1915); assay type: functional, organism-based;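 also: potency for reduction of bacterial viability or growth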
[9] = glucagon-like peptide-1 release potency in STC-1, concentration-response, half-maximal inhibitory concentration in the STC-1 line (AID 1117345); assay type: functional, cell-based
Leucine aminopeptidase = molecular target: T1, Leucine aminopeptidase (Plasmodium falciparum 3D7, UniProt Q8IL11); assay: P. falciparum M17LAP inhibitors, primary screen, biochemical, fluorogenic H-Leu-NHMec substrate, 1536-well (AID 1619); assay type: functional
T1 sequence (Q8IL11 whole entry): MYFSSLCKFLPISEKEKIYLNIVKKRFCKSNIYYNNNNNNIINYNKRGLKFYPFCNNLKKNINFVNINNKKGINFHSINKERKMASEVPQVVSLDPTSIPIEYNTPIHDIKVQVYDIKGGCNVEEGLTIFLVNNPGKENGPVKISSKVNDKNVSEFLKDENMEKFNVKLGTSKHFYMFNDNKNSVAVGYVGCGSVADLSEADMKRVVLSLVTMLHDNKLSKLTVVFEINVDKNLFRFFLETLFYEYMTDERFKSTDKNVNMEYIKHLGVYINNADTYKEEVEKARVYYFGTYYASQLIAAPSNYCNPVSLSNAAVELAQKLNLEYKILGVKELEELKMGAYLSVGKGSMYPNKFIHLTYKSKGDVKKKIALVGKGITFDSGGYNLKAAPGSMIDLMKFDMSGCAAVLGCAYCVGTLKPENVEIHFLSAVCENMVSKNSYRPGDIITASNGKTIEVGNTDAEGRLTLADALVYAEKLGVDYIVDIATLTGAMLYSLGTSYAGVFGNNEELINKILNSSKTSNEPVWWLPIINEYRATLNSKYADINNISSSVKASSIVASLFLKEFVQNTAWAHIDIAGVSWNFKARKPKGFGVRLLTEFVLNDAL

Compound: O=C1C=C(N2CCOCC2)c2ccccc2C1=O
EC50 (HEK293): 8.79 µM (active)
IC50 [1]: > 39.8 µM (not active)

Ki [2]: 1 µM (active)
Ki [3]: > 1.58 µM (inactive)
Ki [4]: > 2.51 µM (inactive)
Ki [5]: > 6.31 µM (inactive)
Ki [6]: > 3.98 µM (inactive)
Ki [7]: > 3.16 µM (inactive)
Ki [8]: 6.31 µM (active)
Compound: N#Cc1ccc2[nH]c(O)c(-c3ccc(CN4CCOCC4)cn3)c2c1 [AZD-1080]

Compound: CCc1oc2ccccc2c1C(=O)c1cc(Br)c(O)c(Br)c1 [BENZBROMARONE]
EC50 (Streptococcus): > 150 µM (not active)
IC50 [9]: > 40 µM (inactive)
IC50 (Leucine aminopeptidase): 81.9 µM (active)
